The values below come from article PMC11428279, “Exploring Structure–Activity Relationships and Modes of Action of Laterocidine” (ACS Central Science, 2024).

For test [1], the system named is A. baumannii. The test is classed as cell-based. The method, then: (§1) MICs for laterocidine and its various analogues were determined by broth microdilution[49] for the following polymyxin-susceptible ATCC and clinical isolates: P. aeruginosa FADDI-PA022, FADDI-PA001, FADDI-PA025, FADDI-PA070, FADDI-PA060; A. baumannii FADDI-AB134, FADDI-AB034, FADDI-AB030, FADDI-AB174, FADDI-AB241; K. pneumoniae FADDI-KP032, FADDI-KP022, BM1, FADDI-KP065, FADDI-KP064, FADDI-KP003; and E. cloacae FADDI-EC001, FADDI-EC003, and FADDI-EC006. Experiments were performed with cation-adjusted Mueller–Hinton broth (CAMHB) in 96-well polystyrene microtiter plates. Wells were inoculated with 100 μL of bacterial suspension prepared in CAMHB (containing ∼10^6 CFU/mL) and 100 μL of CAMHB containing increasing concentrations of polymyxins (0–32 μg/mL). MIC measurements were performed in duplicate, with the MIC being the lowest concentration at which visible growth was inhibited following 18–20 h of incubation at 37 °C. Bacterial killing kinetics was investigated over 24 h as described previously.[50]

In test [2] the test system is Gram-negative strains of P. aeruginosa, A. baumannii, K. pneumoniae, and E. cloacae. The test is classed as cell-based. As for the experimental part:
as §1

[3] abbreviates: compared with native laterocidine.

The structures appear in SMILES notation. Like-named read-outs stand apart in the source and are kept apart here. Bridge positions count the residues as written; N and C are the ends. Square brackets hold non-standard residues; d marks the D form. Peptide text beside a SMILES is read from it. * marks the point of attachment. Pen = CC(C)(S)[C@H](N)C(=O)O; dOrn = NCCC[C@@H](N)C(=O)O; Nonanoyl = CCCCCCCCC(=O)*; X2 = O=C(c1ccc(Cl)cc1Cl)*; Orn = NCCC[C@H](N)C(=O)O; Dap = NC[C@H](N)C(=O)O

With `CC[C@H](C)[C@@H]1NC(=O)[C@@H](NC(=O)[C@H](Cc2c[nH]c3ccccc23)NC(=O)[C@@H](CCCN)NC(=O)CNC(=O)[C@H](CCCN)NC(=O)[C@@H](CCCN)NC(=O)[C@@H](Cc2c[nH]c3ccccc23)NC(=O)[C@@H](Cc2ccc(O)cc2)NC(=O)[C@@H](CO)NC(=O)c2ccc(Cl)cc2Cl)[C@@H](C)OC(=O)CNC(=O)CNC(=O)[C@H](CC(N)=O)NC1=O` [Peptide 12] (X2-[dS][dY][dW][dOrn][Orn]G[dOrn]WTINGG; ester 9-C), the “fold increase in MIC (loss of activity) against A. baumannii” value in test [1] (setting [3]) was 4–8 fold.
Take `CC[C@H](C)[C@@H]1NC(=O)[C@@H](N)[C@@H](C)OC(=O)CNC(=O)CNC(=O)[C@H](CC(N)=O)NC1=O` [Peptide 13] (HELM PEPTIDE1{[C[C@@H](O[*:3])[C@H](N)C(=O)[*:2]].I.N.G.G}$PEPTIDE1,PEPTIDE1,1:R3-5:R2$$$V2.0): the “MICs against all tested strains (range)” value in test [2] was greater than 32 µg/mL.
The same measure, in the same setting: the figure for `CC[C@H](C)[C@@H]1NC(=O)[C@@H](NC(=O)[C@H](Cc2c[nH]c3ccccc23)NC(=O)[C@@H](CCCN)NC(=O)CNC(=O)[C@H](CCCN)NC(=O)[C@@H](CCCN)NC(=O)[C@@H](Cc2c[nH]c3ccccc23)NC(=O)[C@@H](Cc2ccc(O)cc2)NC(=O)[C@H](N)CO)[C@@H](C)OC(=O)CNC(=O)CNC(=O)[C@H](CC(N)=O)NC1=O` [Peptide 14] (H-[dS][dY][dW][dOrn][Orn]G[dOrn]WTINGG; ester 9-C) is greater than 32 µg/mL.
On to `CCCCCCCCC(=O)N[C@H](CO)C(=O)N[C@H](Cc1ccc(O)cc1)C(=O)N[C@H](Cc1c[nH]c2ccccc12)C(=O)N[C@H](CCCN)C(=O)N[C@@H](CCCN)C(=O)NCC(=O)N[C@H](CCCN)C(=O)N[C@@H](Cc1c[nH]c2ccccc12)C(=O)N[C@H]1CNC(=O)CNC(=O)CNC(=O)[C@H](CC(N)=O)NC(=O)[C@H]([C@@H](C)CC)NC1=O` [Peptide 16] (Nonanoyl-[dS][dY][dW][dOrn][Orn]G[dOrn]W[Dap]INGG; lactam 9-C), for which the “MICs against P. aeruginosa and A. baumannii (range)” value in test [2] was greater than 32 µg/mL.
Consider `CCCCCCCCC(=O)N[C@H](CO)C(=O)N[C@H](Cc1ccc(O)cc1)C(=O)N[C@H](Cc1c[nH]c2ccccc12)C(=O)N[C@H](CCCN)C(=O)N[C@@H](CCCN)C(=O)NCC(=O)N[C@H](CCCN)C(=O)N[C@@H](Cc1c[nH]c2ccccc12)C(=O)N[C@@H]1C(=O)N[C@@H]([C@@H](C)CC)C(=O)N[C@@H](CC(N)=O)C(=O)NCC(=O)NCC(=O)N[C@@H]1C` [Peptide 17], for which the “MICs against P. aeruginosa and A. baumannii (range)” value in test [2] is greater than 32 µg/mL.
For `CCCCCCCCC(=O)N[C@H](CO)C(=O)N[C@H](Cc1ccc(O)cc1)C(=O)N[C@H](Cc1c[nH]c2ccccc12)C(=O)N[C@H](CCCN)C(=O)N[C@@H](CCCN)C(=O)NCC(=O)N[C@H](CCCN)C(=O)N[C@@H](Cc1c[nH]c2ccccc12)C(=O)N[C@@H]1C(=O)N[C@@H]([C@@H](C)CC)C(=O)N[C@@H](CC(N)=O)C(=O)NCC(=O)N[C@H](C(=O)O)CSSC1(C)C` [Peptide 18] (Nonanoyl-[dS][dY][dW][dOrn][Orn]G[dOrn]W[Pen]INGC-OH; disulfide 9-13; C-terminus assumed), in test [2] (setting [3]), the “fold increase in MIC (loss of activity) against all strains / all species” value is reported as 2–8 fold.
On to `CCCCCCCCC(=O)N[C@H](CO)C(=O)N[C@H](Cc1ccc(O)cc1)C(=O)N[C@H](Cc1c[nH]c2ccccc12)C(=O)N[C@H](CCCN)C(=O)N[C@@H](CCCN)C(=O)NCC(=O)N[C@H](CCCN)C(=O)N[C@@H](Cc1c[nH]c2ccccc12)C(=O)N[C@H](C(=O)N[C@H](C(=O)N[C@@H](CC(N)=O)C(=O)NCC(=O)NCC(=O)O)[C@@H](C)CC)[C@@H](C)O` [Peptide 19] (Nonanoyl-[dS][dY][dW][dOrn][Orn]G[dOrn]WTINGG-OH), for which, in test [2], the “MICs against K. pneumoniae and E. cloacae (range)” value was in the range of 4 to 32 µg/mL; the “MICs against P. aeruginosa and A. baumannii (range)” value is 8 to 32 µg/mL. In test [2] (setting [3]), the “fold increase in MIC for K. pneumoniae and E. cloacae” value is recorded as 2–4 fold; the “fold increase in MIC for P. aeruginosa and A. baumannii” value is reported as 2–8 fold.
For the molecule `CCCCCCCCC(=O)N[C@H](CO)C(=O)N[C@H](Cc1ccc(O)cc1)C(=O)N[C@H](Cc1c[nH]c2ccccc12)C(=O)N[C@H](CCCN)C(=O)N[C@@H](CCCN)C(=O)NCC(=O)N[C@H](CCCN)C(=O)N[C@@H](Cc1c[nH]c2ccccc12)C(=O)N[C@H](C(=O)N[C@H](C(=O)N[C@@H](CC(N)=O)C(=O)NCC(=O)NCC(N)=O)[C@@H](C)CC)[C@@H](C)O` [Peptide 20] (Nonanoyl-[dS][dY][dW][dOrn][Orn]G[dOrn]WTINGG-NH2), the “MICs against P. aeruginosa, K. pneumoniae, and E. cloacae (range)” value in test [2] was 4 to 32 µg/mL. In test [2] (setting [3]), the “fold increase in MIC against P. aeruginosa, K. pneumoniae, and E. cloacae” value was 2–4 fold.
For the molecule `CCCCCCCCC(=O)N[C@H](CO)C(=O)N[C@H](Cc1ccc(O)cc1)C(=O)N[C@H](Cc1c[nH]c2ccccc12)C(=O)N[C@H](CCCN)C(=O)N[C@@H](CCCN)C(=O)NCC(=O)N[C@H](CCCN)C(=O)N[C@@H](Cc1c[nH]c2ccccc12)C(=O)N[C@H](C(=O)N[C@H](C(=O)N[C@@H](CC(N)=O)C(=O)NCC(N)=O)[C@@H](C)CC)[C@@H](C)O` [Peptide 21] (Nonanoyl-[dS][dY][dW][dOrn][Orn]G[dOrn]WTING-NH2), the “fold increase in MIC against P. aeruginosa, K. pneumoniae, and E. cloacae” value in test [2] (setting [3]) is on record as 1–2 fold.
In the case of `CCCCCCCCC(=O)N[C@H](CO)C(=O)N[C@H](Cc1ccc(O)cc1)C(=O)N[C@H](Cc1c[nH]c2ccccc12)C(=O)N[C@H](CCCN)C(=O)N[C@@H](CCCN)C(=O)NCC(=O)N[C@H](CCCN)C(=O)N[C@@H](Cc1c[nH]c2ccccc12)C(=O)N[C@@H]1C(=O)N[C@@H]([C@@H](C)CC)C(=O)N[C@@H](CC(N)=O)C(=O)N[C@@H](C)C(=O)NCC(=O)O[C@@H]1C` [Peptide 25] (Nonanoyl-[dS][dY][dW][dOrn][Orn]G[dOrn]WTINAG; ester 9-C), in test [2], the “MICs against P. aeruginosa and A. baumannii (range)” value was in the range of 2 to 16 µg/mL. Besides, the “fold increase in MIC (loss of activity) against all strains / all species” value in test [2] (setting [3]) is listed as “no more than 1 fold”.
`CCCCCCCCC(=O)N[C@H](CO)C(=O)N[C@H](Cc1ccc(O)cc1)C(=O)N[C@H](Cc1c[nH]c2ccccc12)C(=O)N[C@H](CCCN)C(=O)N[C@@H](CCCN)C(=O)NCC(=O)N[C@H](CCCN)C(=O)N[C@@H](Cc1c[nH]c2ccccc12)C(=O)N[C@@H]1C(=O)N[C@@H]([C@@H](C)CC)C(=O)N[C@@H](C)C(=O)NCC(=O)NCC(=O)O[C@@H]1C` [Peptide 26] (Nonanoyl-[dS][dY][dW][dOrn][Orn]G[dOrn]WTIAGG; ester 9-C): the “MICs against P. aeruginosa and A. baumannii (range)” value in test [2] lay within 2 to 16 µg/mL. In test [2] (setting [3]), the “fold increase in MIC (loss of activity) against all strains / all species” value is listed as “no more than 1 fold”.
Consider `CCCCCCCCC(=O)N[C@H](CO)C(=O)N[C@H](Cc1ccc(O)cc1)C(=O)N[C@H](Cc1c[nH]c2ccccc12)C(=O)N[C@H](CCCN)C(=O)N[C@@H](CCCN)C(=O)NCC(=O)N[C@H](C)C(=O)N[C@@H](Cc1c[nH]c2ccccc12)C(=O)N[C@@H]1C(=O)N[C@@H]([C@@H](C)CC)C(=O)N[C@@H](CC(N)=O)C(=O)NCC(=O)NCC(=O)O[C@@H]1C` [Peptide 29] (Nonanoyl-[dS][dY][dW][dOrn][Orn]G[dA]WTINGG; ester 9-C), for which, in test [2] (setting [3]), the “fold increase in MIC (loss of activity) against all strains / all species” value is recorded as 2–4 fold.
Same read-out and setting: then `CCCCCCCCC(=O)N[C@H](CO)C(=O)N[C@H](Cc1ccc(O)cc1)C(=O)N[C@H](Cc1c[nH]c2ccccc12)C(=O)N[C@H](CCCN)C(=O)N[C@@H](C)C(=O)NCC(=O)N[C@H](CCCN)C(=O)N[C@@H](Cc1c[nH]c2ccccc12)C(=O)N[C@@H]1C(=O)N[C@@H]([C@@H](C)CC)C(=O)N[C@@H](CC(N)=O)C(=O)NCC(=O)NCC(=O)O[C@@H]1C` [Peptide 31] (Nonanoyl-[dS][dY][dW][dOrn]AG[dOrn]WTINGG; ester 9-C), with 2–8 fold.
Consider `CCCCCCCCC(=O)N[C@H](CO)C(=O)N[C@H](Cc1ccc(O)cc1)C(=O)N[C@H](Cc1c[nH]c2ccccc12)C(=O)N[C@H](C)C(=O)N[C@@H](CCCN)C(=O)NCC(=O)N[C@H](CCCN)C(=O)N[C@@H](Cc1c[nH]c2ccccc12)C(=O)N[C@@H]1C(=O)N[C@@H]([C@@H](C)CC)C(=O)N[C@@H](CC(N)=O)C(=O)NCC(=O)NCC(=O)O[C@@H]1C` [Peptide 32] (Nonanoyl-[dS][dY][dW][dA][Orn]G[dOrn]WTINGG; ester 9-C), for which, in test [2] (setting [3]), the “fold increase in MIC (loss of activity) against all strains / all species” value is recorded as 2–8 fold.
As for `CCCCCCCCC(=O)N[C@H](CO)C(=O)N[C@H](Cc1ccc(O)cc1)C(=O)N[C@H](C)C(=O)N[C@H](CCCN)C(=O)N[C@@H](CCCN)C(=O)NCC(=O)N[C@H](CCCN)C(=O)N[C@@H](Cc1c[nH]c2ccccc12)C(=O)N[C@@H]1C(=O)N[C@@H]([C@@H](C)CC)C(=O)N[C@@H](CC(N)=O)C(=O)NCC(=O)NCC(=O)O[C@@H]1C` [Peptide 33] (Nonanoyl-[dS][dY][dA][dOrn][Orn]G[dOrn]WTINGG; ester 9-C), in test [1] (summary of Tables 1 and 2), the “MICs against A. baumannii (range over strains)” value was greater than 32 µg/mL.
As to `CCCCCCCCC(=O)N[C@H](CO)C(=O)N[C@H](C)C(=O)N[C@H](Cc1c[nH]c2ccccc12)C(=O)N[C@H](CCCN)C(=O)N[C@@H](CCCN)C(=O)NCC(=O)N[C@H](CCCN)C(=O)N[C@@H](Cc1c[nH]c2ccccc12)C(=O)N[C@@H]1C(=O)N[C@@H]([C@@H](C)CC)C(=O)N[C@@H](CC(N)=O)C(=O)NCC(=O)NCC(=O)O[C@@H]1C` [Peptide 34] (Nonanoyl-[dS][dA][dW][dOrn][Orn]G[dOrn]WTINGG; ester 9-C), in test [1], the “MICs against A. baumannii (range over strains)” value is no less than 32 µg/mL.
